In patent US20130317037A1, “METHOD OF ADMINISTRATION AND TREATMENT” (GlaxoSmithKline Intellectual Property Development Limited, priority 2010, published 2013):
Like-named read-outs stand apart in the source and are kept apart here.

Assays:
[1] = tested on: ZR751; assay: cells; assay type: cell-based
Procedure, shortened: (§1)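 3-day proliferation, NCI/DTP format; 8-pt 1:5 serial dilution in DMSO; time-0 baseline plate read at drug addition.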

[2] = tested on: HCC202; assay: cells; assay type: cell-based
Procedure, shortened: as §1

[3] = tested on: Hs578T; assay: cells; assay type: cell-based
Procedure, shortened: as §1

[4] = tested on: MCF7; assay: cells; assay type: cell-based
Procedure, shortened: as §1

[5] = tested on: HCC2185; assay: cells; assay type: cell-based
Procedure, shortened: as §1

[6] = tested on: EFM-19; assay: Panel A proliferation assay (CellTiter-Glo); HER2 Gain <5, KRAS WT, PIK3CA p.H1047L; assay type: cell-based, human; settings: for IC50: Homo sapiens
Protocol: (§2) A total of 15 breast cancer cell lines were used in this study. These cells were cultured in RPMI-1640 and supplemented with 5% or 10% fetal bovine serum, 2 mM GlutaMAX™ and 1 mM sodium pyruvate, or in growth medium recommended by the suppliers [American Type Culture Collection, Manassas, Va., USA; Developmental Therapeutics Program, National Cancer Institute, Bethesda, Md., USA; German Collection of Microorganisms and Cell Cultures (DSMZ), Braunschweig, Germany; European Collection of Cell Cultures (ECACC), Porton Down, UK]. Cells of each line were seeded into a 384-well microtiter plate at two cell densities. Low density ranges were 300-1800 cells/well, and a high density was 600 to 3600 cells/well). The plating density was determined by the rate of proliferation of the cell line in the absence of any inhibitor and varied amongst cell lines. High plating densities were double that of low density. Each cell density was plated in triplicate. In total there were 30 wells to be treated with increasing concentrations of Compound B for each cell line at each density. In addition, there were 24 wells of dimethyl sulfoxide (DMSO)-treated controls at each density. After seeding, the cells were incubated at 37° C. in 5% CO2 for 24 hours. Subsequently, Compound B was added to each cell line with 10 concentrations. The dosing solution of Compound B was first prepared in DMSO at a master stock concentration of 10 mM. […] were then made of the stock solution to give a range of working stock concentrations; 10.00 mM, 3.164 mM, 1.001 mM, 316.9 μM, 100.3 μM, 31.74 μM, 10.04 μM, 3.178 μM, 1.006 μM and 318.3 nM. The working stock concentrations of Compound B were then dispensed into the seeded cancer cell lines using a Biomek FX liquid handler to give final treatment concentrations of 0.1% of the stock concentration. A similar volume of DMSO without Compound B was dispensed into the 24 control wells of each seeding density at a concentration of 0.1%. Also, a zero-time plate prepared with a similar cell seeding was read for each cell line at each seeding density immediately after the addition of the DMSO control. After a 72 h incubation, an equal volume of the CellTiter-Glo (CellTiter-Glo Luminescent Cell Viability Assay, Promega, Madison, Wis.) to that of the cell culture medium was added into each well of the plate. After the contents were mixed to induce cell lysis and stabilization, cell luminescence was recorded using a SpectraMax M5^e (Molecular Devices, Sunnyvale, Calif., USA)
(§3) The luminescence of Compound B treated cells was compared relative to the average of the 24 DMSO-treated control wells at each cell density for every concentration of Compound B for all triplicate wells. The percent intensity values were used in model 205 of XLfit in Microsoft Excel to calculate gIC50s for the low and high seeding density (a 4 parameter logistical fit). Specifically, the midpoint of the growth window (the gIC50) falls half way between the number of cells at the time of compound addition (T=0) and the growth of control cells treated with DMSO. The gIC50 value serves as a metric for measuring the inhibition of proliferation in cancer cells. […] Finally, where data quality permits, the Ymin values (defined as the maximum growth inhibition relative to the cell density at Time-zero) were calculated as a measure of cytotoxicity where data were of reasonable quality.

[7] = tested on: HCC1954; assay: Panel A proliferation assay (CellTiter-Glo); HER2 Gain ≧5, KRAS WT, PIK3CA p.H1047R; assay type: cell-based, human; settings: for IC50: Homo sapiens
Protocol: as §2, §3

[8] = tested on: HCC70; assay: Panel A proliferation assay (CellTiter-Glo); HER2 Loss 1 copy, KRAS WT, PIK3CA WT; assay type: cell-based, human; settings: for IC50: Homo sapiens
Protocol: as §2, §3

SMILES: COc1ncc(-c2ccc3nccc(-c4ccnnc4)c3c2)cc1NS(=O)(=O)c1ccc(F)cc1F [Compound B, 2,4-difluoro-N-{2-(methyloxy)-5-[4-(4-pyridazinyl)-6-quinolinyl]-3-pyridinyl}benzenesulfonamide]
- IC50 ([1]; Homo sapiens, ZR-75-1, 72 h, ZR751, three-day drug treatment, read-out: gIC50): 10.5 nM
- CC50 ([1]; Homo sapiens, ZR-75-1, ZR751, 50% net loss of cells vs time 0, read-out: LC50 (the source's name)): 248 nM
- TGI ([1]; ZR751, total growth inhibition): 30.2 nM
- TGI ([2]; HCC202, total growth inhibition): 2.6 nM
- IC50 ([2]; Homo sapiens, 72 h, HCC202, three-day drug treatment, read-out: gIC50): 1.1 nM
- CC50 ([2]; Homo sapiens, HCC202, 50% net loss of cells vs time 0, read-out: LC50 (the source's name)): 21.4 nM
- CC50 ([3]; Homo sapiens, Hs-578T, 50% net loss of cells vs time 0, read-out: LC50 (the source's name)): > 33000 nM
- IC50 ([3]; Homo sapiens, Hs-578T, 72 h, three-day drug treatment, read-out: gIC50): 67.4 nM
- TGI ([3]; total growth inhibition): 4556.2 nM
- IC50 ([4]; Homo sapiens, 72 h, MCF7, three-day drug treatment, read-out: gIC50): 7.3 nM
- CC50 ([4]; Homo sapiens, MCF7, 50% net loss of cells vs time 0, read-out: LC50 (the source's name)): 149 nM
- TGI ([4]; MCF7, total growth inhibition): 22.0 nM
- TGI ([5]; HCC2185, total growth inhibition): 10.0 nM
- IC50 ([5]; Homo sapiens, 72 h, HCC2185, three-day drug treatment, read-out: gIC50): 3.2 nM
- CC50 ([5]; Homo sapiens, HCC2185, 50% net loss of cells vs time 0, read-out: LC50 (the source's name)): 132 nM
- High Density Y-Min ([6]; EFM-19, high density, % of cells at T = 0): 22.7%
- Low Density Y-Min ([6]; EFM-19, low density, % of cells at T = 0): 24.1%
- IC50 ([6]; EFM-19, high seeding density, 72 h, read-out: High Density gIC50): 0.5 nM
- IC50 ([6]; EFM-19, low seeding density, 72 h, read-out: Low Density gIC50): 0.6 nM
- IC50 ([6]; EFM-19, mean of low and high density, read-out: Mean gIC50): 0.55 nM
- High Density Y-Min ([7]; HCC1954, high density, % of cells at T = 0): 18.3%
- Low Density Y-Min ([7]; HCC1954, low density, % of cells at T = 0): 19.8%
- IC50 ([7]; HCC1954, high seeding density, 72 h, read-out: High Density gIC50): 3.4 nM
- IC50 ([7]; HCC1954, low seeding density, 72 h, read-out: Low Density gIC50): 3 nM
- IC50 ([7]; HCC1954, mean of low and high density, read-out: Mean gIC50): 3.2 nM
- High Density Y-Min ([8]; HCC70, high density, % of cells at T = 0): 8.7%
- Low Density Y-Min ([8]; HCC70, low density, % of cells at T = 0): 9.6%
- IC50 ([8]; HCC70, high seeding density, 72 h, read-out: High Density gIC50): 4.8 nM
- IC50 ([8]; HCC70, low seeding density, 72 h, read-out: Low Density gIC50): 4.6 nM
- IC50 ([8]; HCC70, mean of low and high density, read-out: Mean gIC50): 4.7 nM
